This is an account of results in patent EP1007549B1, “COMPOSITIONS AND METHODS FOR HIGHLY EFFICIENT TRANSFECTION” (Innovata Plc, priority 1997, dated 2006).

Data set [1] concerns Cos7 cells. The data set is described as follows: Transfection of Cos cells with pCMVβ, Galacto-Light β-galactosidase assay. Type of data set: cell-based, monkey. The conditions noted are these: chloroquine, 5 hours, triplicate. The method, then:
The DNA and complex solutions were made as follows: • DNA solution: 100 µg/ml pCMVβ, 25 mM phosphate pH 7.4, 0.6 M NaCl. Complex solution: 100 µg/ml pCMVβ, 25 mM phosphate pH 7.4, 0.6 M NaCl, 200 µg/ml K6CL22. These solutions were incubated at room temperature for 1 hour and then 4°C overnight. Cos cells were seeded at 1×10^5 cells per well in 6 well plates (in DMEM, 10% Fetal calf serum (FCS)) 24 hours before incubation with complex or DNA.
The DNA and complex solutions were diluted into PEG diluent (10% PEG 8000, 25 mM phosphate pH 7.4, 37.5 mM NaCl) to a final DNA concentration of 20 µg/ml. Just prior to transfection the Cos cells were washed with PBS and 875 µl RATQ medium (RAT medium with 137.14 µM chloroquine) was added per well. 125 µl of diluted complex or DNA solution was then added per well and the cells were incubated at 37°C for 5 hours. […] 100 µl of Reaction buffer is added to each tube, the samples are incubated at room temperature for 60 mins and then analyzed using Light Emission Accelerator and a Barthoid lumat LB 9501 luminometer. The protein concentration of the cleared cell lysate was measured using the Bio-Rad DC protein assay kit (Bio-Rad). The results are then expressed as relative light units per mg of protein (Figure 7). […]

The test system of data set [2] is KLN 205 cells. In words: Uptake of YOYO-1 labelled DNA complexes by KLN 205 cells (FACScan). Type of data set: cell-based, mouse. On the procedure: KLN 205 cells were plated at a density of 1.5×10^5 cells per well in 6 well plates one day prior to the addition of DNA. Plasmid DNA (pCMVgal) was labeled with the fluorescent dye: YOYO-1 (Molecular Probes, Eugene, OR) at a ratio of 1 dye molecule per 100 bp (i.e. 1.5 µl of a 10 µM YOYO-1 solution per µg of DNA). The DNA was diluted to 40 µg/ml with 10 mM HEPES, pH 7.3. […] The transfection complex solution was left for 1 hour at room temperature before it was applied to the cells in EMEM/120 µM chloroquine with or without FCS at a DNA concentration of 2 µg/well (i.e. 100 µl of complex added to 900 µl medium for one well). After 4 hours of incubation at 37°C the cells were washed twice with PBS and harvested with Trypsin/EDTA. The cell associated fluorescence was analyzed using a FACScan (Becton Dickinson).

In data set [3] the test system is HepG2 cells. The data set is described as follows: Transfection of HepG2 cells in the presence of serum. Type of data set: cell-based. The settings on record: 10% FCS, optimum charge ratio for each peptide, pCMVβ. The method, then: These transfection complexes were then tested for their comparative ability to transfect HepG2 cells in the presence of 10% FCS (Figure 32).

Data set [4] concerns KLN 205 cells. The data set is described as follows: Transfection of KLN 205 cells, luminescence and X-gal. Type of data set: cell-based, mouse. The settings on record: for % expressing cells / average light units: 120 µM chloroquine, 2 µg DNA/well; for average light units: charge ratio +2.
Data set [5] is described as follows: Photon correlation spectroscopy (PCS) particle size of K6CL22-DNA complexes. Type of data set: physicochemical. The conditions noted are these: 150mM NaCl, one hour at room temperature, DNA 40 µg/ml. The method, then:
Complexes between K6CL22 and DNA were formed in the following way in a laminar flow hood: A stock solution of K6CL22 (typically 8-12mg/ml) was stored in water at -20°C. This was thawed and diluted to 4-400µg/ml in either 10mM HEPES pH7.4 (Hepes) or 10mM HEPES/150mM NaCl pH 7.4 (HBS). (It should be noted that these non-reducing conditions favor the formation of peptide dimers via disulfide bonding between peptides of cysteine residues in the peptide). A stock solution of pCMVβ plasmid DNA (typically 2-4mg/ml in either water or TE buffer) was diluted to 40 µg/ml in Hepes or HBS. Peptide (typically 0.4-1ml) was added to an equal volume of diluted DNA. Different target ratios of Peptide:DNA were achieved by varying the concentration of added peptide. Samples were immediately mixed by gently sucking up and down in a pipette tip and left to incubate at room temperature for a minimum of one hour or if required overnight at 4°C.
In Fig. 1, peptide and DNA were mixed as described above and incubated over night at 4°C. The final DNA concentration was 40µg/ml. […]
For PCS analysis the buffers used in the preparation of samples were filtered through 20nm filters. […] Samples were allowed to equilibrate to 25°C prior to measuring, and an average Zav was determined from a minimum of three measurements. […] Zav and intensity and volume distributions were determined using Malvern PC S software. […]

The test system of data set [6] is human dendritic cells. The data set is described as follows: Transfection of human dendritic cells with pEGFP-N1, count of fluorescent positive cells. Type of data set: cell-based.

In the case of `CC[C@H](C)[C@H](NC(=O)[C@H](CC(N)=O)NC(=O)[C@H](CS)NC(=O)[C@H](CCSC)NC(=O)[C@H](CCCNC(=N)N)NC(=O)[C@H](CCC(=O)O)NC(=O)[C@H](Cc1ccc(O)cc1)NC(=O)[C@H](C)NC(=O)[C@H](CO)NC(=O)[C@H](CCCNC(=N)N)NC(=O)[C@@H](NC(=O)[C@H](CCCCN)NC(=O)[C@H](CCCNC(=N)N)NC(=O)CNC(=O)[C@H](CC(N)=O)NC(=O)[C@H](CCC(=O)O)NC(=O)CNC(=O)[C@H](CCCNC(=N)N)NC(=O)[C@H](Cc1c[nH]c2ccccc12)NC(=O)[C@H](Cc1ccccc1)NC(=O)CNC(=O)[C@H](CC(C)C)NC(=O)[C@H](Cc1ccccc1)NC(=O)CNC(=O)CNC(=O)[C@H](CCCCN)NC(=O)[C@H](CCCCN)NC(=O)[C@H](CCCCN)NC(=O)[C@H](CCCCN)NC(=O)[C@H](CCCCN)NC(=O)[C@@H](N)CCCCN)[C@@H](C)O)C(=O)N[C@@H](CC(C)C)C(=O)N[C@@H](CCCCN)C(=O)NCC(=O)N[C@@H](CCCCN)C(=O)O` [K6CL22], the “transfection of Cos cells (β-galactosidase, relative light units per mg of protein)” value in data set [1] is on record as “very efficient transfection”. Moreover, the “uptake of complexed DNA compared to DNA complexed with a polylysine peptide” value in data set [2] (charge ratio +2, 120 µM chloroquine, 4 hours) is “taken up as efficiently”. Moreover, the “uptake of complexed DNA compared to a polylysine peptide, presence of FCS” value in data set [2] (in the presence of FCS) is given as “less than that of a polylysine peptide”. The “transfection compared with polylysine peptides or a histone based peptide” value in data set [3] is listed as “greater”. The “gene expression compared to NBC32 complexed plasmid DNA” value in data set [4] is given as “higher”. Moreover, in data set [4] (absence of FCS), the “% expressing cells” value came out at 35% and the average light units was 3000 x 10^6 RLU. Besides, in data set [4] (presence of FCS), the “% expressing cells” value is on record as 5% and the average light units is 77 x 10^6 RLU. Besides, the “size of large particles/aggregates of complex” value in data set [5] was “approx. 1000 nm”. Further, the “transfection efficiency, CL22-complexed versus CL26-complexed DNA” value in data set [6] (Figure 35, peptide/DNA ratio between 2 and 2.6) is listed as “greater”.

Regarding `CC[C@H](C)[C@H](NC(=O)[C@H](CC(N)=O)NC(=O)[C@H](CS)NC(=O)[C@H](CCSC)NC(=O)[C@H](CCCNC(=N)N)NC(=O)[C@H](CCC(=O)O)NC(=O)[C@H](Cc1ccc(O)cc1)NC(=O)[C@H](C)NC(=O)[C@H](CO)NC(=O)[C@H](CCCNC(=N)N)NC(=O)[C@@H](NC(=O)[C@H](CCCCN)NC(=O)[C@H](CCCNC(=N)N)NC(=O)CNC(=O)[C@H](CC(N)=O)NC(=O)[C@H](CCC(=O)O)NC(=O)CNC(=O)[C@H](CCCNC(=N)N)NC(=O)[C@H](Cc1c[nH]c2ccccc12)NC(=O)[C@H](Cc1ccccc1)NC(=O)CNC(=O)[C@H](CC(C)C)NC(=O)[C@H](Cc1ccccc1)NC(=O)CNC(=O)CNC(=O)[C@H](CCCCN)NC(=O)[C@H](CCCCN)NC(=O)[C@H](CCCCN)NC(=O)[C@H](CCCCN)NC(=O)[C@H](CCCCN)NC(=O)[C@@H](N)CCCCN)[C@@H](C)O)C(=O)N[C@@H](CC(C)C)C(=O)N[C@@H](CCCCN)C(=O)NCC(=O)N[C@@H](CCCCN)C(=O)O` [K6CL22 monomer], the “transfection of dendritic cells, monomer versus dimer” value in data set [6] (peptide/DNA ratio between 2.0 and 4.0) is on record as “transfects dendritic cells poorly compared with CL22 dimer”. In addition, in data set [6] (presence of FCS compared to absence of FCS), the “effect of FCS on transfection efficiency” value was “greatly reduced”.

On to `CC[C@H](C)[C@H](NC(=O)[C@H](CC(N)=O)NC(=O)[C@H](CS)NC(=O)[C@H](CCSC)NC(=O)[C@H](CCCNC(=N)N)NC(=O)[C@H](CCC(=O)O)NC(=O)[C@H](Cc1ccc(O)cc1)NC(=O)[C@H](C)NC(=O)[C@H](CO)NC(=O)[C@H](CCCNC(=N)N)NC(=O)[C@@H](NC(=O)[C@H](CCCCN)NC(=O)[C@H](CCCNC(=N)N)NC(=O)CNC(=O)[C@H](CC(N)=O)NC(=O)[C@H](CCC(=O)O)NC(=O)CNC(=O)[C@H](CCCNC(=N)N)NC(=O)[C@H](Cc1c[nH]c2ccccc12)NC(=O)[C@H](Cc1ccccc1)NC(=O)CNC(=O)[C@H](CC(C)C)NC(=O)[C@H](Cc1ccccc1)NC(=O)CNC(=O)CNC(=O)[C@H](CCCCN)NC(=O)[C@H](CCCCN)NC(=O)[C@H](CCCCN)NC(=O)[C@H](CCCCN)NC(=O)[C@H](CCCCN)NC(=O)[C@H](CCCCN)NC(=O)[C@H](CCCCN)NC(=O)[C@H](CCCCN)NC(=O)[C@H](CCCCN)NC(=O)[C@H](CCCCN)NC(=O)[C@H](CCCCN)NC(=O)[C@@H](N)CCCCN)[C@@H](C)O)C(=O)N[C@@H](CC(C)C)C(=O)N[C@@H](CCCCN)C(=O)NCC(=O)N[C@@H](CCCCN)C(=O)O` [CL26], for which the “transfection efficiency, CL26-complexed versus CL22-complexed DNA” value is “higher efficiency” in data set [6] (Figure 35, peptide/DNA ratio between 1 and 1.8); “higher efficiency” in data set [6] (Figures 33 and 34).
